# Measured values taken from PubChem BioAssay AID1919009 (Molecular Pharmacology Branch, DTP, NCI, 2023).
# Test system: K24384-001-R-PDC complex spheroid growth
# Assay: Anticancer human tumor K24384-001-R-PDC patient-derived pancreatic adenocarcinoma cell line growth inhibition [AhR]
# Conditions: for IC50: curve of first compound; for viability, T/C: stronger effect = lower value
# Summary of the method: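 Agents were dosed in half-log steps down from roughly clinical Cmax, or from 10 microM where Cmax was unknown, alone and with AhR antagonists. Read-out: percent test/control growth of tumor spheroids containing HUVEC and MSC stromal cells.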
# [1] = second compound 0.1 µM, first compound 0.0316 µM
# [2] = second compound 0.1 µM, first compound 0.1 µM
# [3] = second compound 0.1 µM, first compound 0.316 µM
# [4] = second compound 0.1 µM, first compound 1 µM
# [5] = second compound 0.1 µM, first compound 3.16 µM
# [6] = second compound 0.1 µM, first compound 10 µM
# [7] = second compound 0.316 µM, first compound 0.0316 µM
# [8] = second compound 0.316 µM, first compound 0.1 µM
# [9] = second compound 0.316 µM, first compound 0.316 µM
# [10] = second compound 0.316 µM, first compound 1 µM
# [11] = second compound 0.316 µM, first compound 3.16 µM
# [12] = second compound 0.316 µM, first compound 10 µM
# [13] = second compound 1 µM, first compound 0.0316 µM
# [14] = second compound 1 µM, first compound 0.1 µM
# [15] = second compound 1 µM, first compound 0.316 µM
# [16] = second compound 1 µM, first compound 1 µM
# [17] = second compound 1 µM, first compound 3.16 µM
# [18] = second compound 1 µM, first compound 10 µM
# [19] = second compound 3.16 µM, first compound 0.0316 µM
# [20] = second compound 3.16 µM, first compound 0.1 µM
# [21] = second compound 3.16 µM, first compound 0.316 µM
# [22] = second compound 3.16 µM, first compound 1 µM
# [23] = second compound 3.16 µM, first compound 3.16 µM
# [24] = second compound 3.16 µM, first compound 10 µM
# [25] = second compound 10 µM, first compound 0.0316 µM
# [26] = second compound 10 µM, first compound 0.1 µM
# [27] = second compound 10 µM, first compound 0.316 µM
# [28] = second compound 10 µM, first compound 1 µM
# [29] = second compound 10 µM, first compound 3.16 µM
# [30] = second compound 10 µM, first compound 10 µM
# [31] = second compound 0.1 µM, first compound 0.00949 µM
# [32] = second compound 0.1 µM, first compound 0.03 µM
# [33] = second compound 0.1 µM, first compound 0.0949 µM
# [34] = second compound 0.1 µM, first compound 0.3 µM
# [35] = second compound 0.316 µM, first compound 0.00949 µM
# [36] = second compound 0.316 µM, first compound 0.03 µM
# [37] = second compound 0.316 µM, first compound 0.0949 µM
# [38] = second compound 0.316 µM, first compound 0.3 µM
# [39] = second compound 1 µM, first compound 0.00949 µM
# [40] = second compound 1 µM, first compound 0.03 µM
# [41] = second compound 1 µM, first compound 0.0949 µM
# [42] = second compound 1 µM, first compound 0.3 µM
# [43] = second compound 3.16 µM, first compound 0.00949 µM
# [44] = second compound 3.16 µM, first compound 0.03 µM
# [45] = second compound 3.16 µM, first compound 0.0949 µM
# [46] = second compound 3.16 µM, first compound 0.3 µM
# [47] = second compound 10 µM, first compound 0.00949 µM
# [48] = second compound 10 µM, first compound 0.03 µM
# [49] = second compound 10 µM, first compound 0.0949 µM
# [50] = second compound 10 µM, first compound 0.3 µM
# 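Throughout, for viability, T/C: percent of DMSO vehicle-treated spheroid viability set as 100%.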
compound,measurement,setting,value
CC1(C)CCC(CN2CCN(c3ccc(C(=O)NS(=O)(=O)c4ccc(NCC5CCOCC5)c([N+](=O)[O-])c4)c(Oc4cnc5[nH]ccc5c4)c3)CC2)=C(c2ccc(Cl)cc2)C1 + Cc1ccccc1N=Nc1ccc(NC(=O)c2ccnn2C)c(C)c1,IC50,second compound 0.1 µM,> 10000 nM
same,IC50,second compound 0.316 µM,> 10000 nM
same,IC50,second compound 1 µM,9660 nM
same,IC50,second compound 3.16 µM,9750 nM
same,IC50,second compound 10 µM,> 10000 nM
same,"viability, T/C",[1],111%
same,"viability, T/C",[2],119%
same,"viability, T/C",[3],113%
same,"viability, T/C",[4],102%
same,"viability, T/C",[5],86.5%
same,"viability, T/C",[6],52.3%
same,"viability, T/C",[7],123%
same,"viability, T/C",[8],112%
same,"viability, T/C",[9],132%
same,"viability, T/C",[10],114%
same,"viability, T/C",[11],118%
same,"viability, T/C",[12],51.7%
same,"viability, T/C",[13],108%
same,"viability, T/C",[14],102%
same,"viability, T/C",[15],122%
same,"viability, T/C",[16],112%
same,"viability, T/C",[17],114%
same,"viability, T/C",[18],48.1%
same,"viability, T/C",[19],111%
same,"viability, T/C",[20],107%
same,"viability, T/C",[21],114%
same,"viability, T/C",[22],112%
same,"viability, T/C",[23],112%
same,"viability, T/C",[24],48.5%
same,"viability, T/C",[25],116%
same,"viability, T/C",[26],147%
same,"viability, T/C",[27],131%
same,"viability, T/C",[28],129%
same,"viability, T/C",[29],111%
same,"viability, T/C",[30],57.8%
CC1COCCN1c1cc(C2(S(C)(=N)=O)CC2)nc(-c2ccnc3[nH]ccc23)n1 (stereo not given) + Cc1ccccc1N=Nc1ccc(NC(=O)c2ccnn2C)c(C)c1,IC50,second compound 0.1 µM,2100 nM
same,IC50,second compound 0.316 µM,2360 nM
same,IC50,second compound 1 µM,2140 nM
same,IC50,second compound 3.16 µM,1550 nM
same,IC50,second compound 10 µM,2750 nM
same,"viability, T/C",[1],102%
same,"viability, T/C",[2],126%
same,"viability, T/C",[3],105%
same,"viability, T/C",[4],70.1%
same,"viability, T/C",[5],38.7%
same,"viability, T/C",[6],35.5%
same,"viability, T/C",[7],111%
same,"viability, T/C",[8],115%
same,"viability, T/C",[9],97.2%
same,"viability, T/C",[10],76.2%
same,"viability, T/C",[11],39.5%
same,"viability, T/C",[12],30.9%
same,"viability, T/C",[13],95.2%
same,"viability, T/C",[14],106%
same,"viability, T/C",[15],90.5%
same,"viability, T/C",[16],71.6%
same,"viability, T/C",[17],38.8%
same,"viability, T/C",[18],29.2%
same,"viability, T/C",[19],76.4%
same,"viability, T/C",[20],116%
same,"viability, T/C",[21],95.8%
same,"viability, T/C",[22],60.4%
same,"viability, T/C",[23],35.5%
same,"viability, T/C",[24],27.4%
same,"viability, T/C",[25],109%
same,"viability, T/C",[26],97.1%
same,"viability, T/C",[27],98.5%
same,"viability, T/C",[28],75.8%
same,"viability, T/C",[29],45.8%
same,"viability, T/C",[30],38.2%
CCN(c1cc(-c2ccc(CN3CCOCC3)cc2)cc(C(=O)NCc2c(C)cc(C)[nH]c2=O)c1C)C1CCOCC1 + Cc1ccccc1N=Nc1ccc(NC(=O)c2ccnn2C)c(C)c1,IC50,second compound 0.1 µM,> 3000 nM
same,IC50,second compound 0.316 µM,> 3000 nM
same,IC50,second compound 1 µM,> 3000 nM
same,IC50,second compound 3.16 µM,> 3000 nM
same,IC50,second compound 10 µM,> 3000 nM
same,"viability, T/C",[31],116%
same,"viability, T/C",[32],114%
same,"viability, T/C",[33],124%
same,"viability, T/C",[34],113%
same,"viability, T/C","second compound 0.1 µM, first compound 0.949 µM",80%
same,"viability, T/C","second compound 0.1 µM, first compound 3 µM",125%
same,"viability, T/C",[35],131%
same,"viability, T/C",[36],126%
same,"viability, T/C",[37],135%
same,"viability, T/C",[38],112%
same,"viability, T/C","second compound 0.316 µM, first compound 0.949 µM",106%
same,"viability, T/C","second compound 0.316 µM, first compound 3 µM",91.2%
same,"viability, T/C",[39],119%
same,"viability, T/C",[40],134%
same,"viability, T/C",[41],131%
same,"viability, T/C",[42],106%
same,"viability, T/C","second compound 1 µM, first compound 0.949 µM",87.3%
same,"viability, T/C","second compound 1 µM, first compound 3 µM",87.8%
same,"viability, T/C",[43],109%
same,"viability, T/C",[44],117%
same,"viability, T/C",[45],116%
same,"viability, T/C",[46],107%
same,"viability, T/C","second compound 3.16 µM, first compound 0.949 µM",130%
same,"viability, T/C","second compound 3.16 µM, first compound 3 µM",105%
same,"viability, T/C",[47],141%
same,"viability, T/C",[48],138%
same,"viability, T/C",[49],147%
same,"viability, T/C",[50],137%
same,"viability, T/C","second compound 10 µM, first compound 0.949 µM",128%
same,"viability, T/C","second compound 10 µM, first compound 3 µM",110%
Nc1ncn(C2CC(O)C(CO)S2)c(=O)n1 (stereo not given) + Cc1ccccc1N=Nc1ccc(NC(=O)c2ccnn2C)c(C)c1,IC50,second compound 0.1 µM,> 300 nM
same,IC50,second compound 0.316 µM,> 300 nM
same,IC50,second compound 1 µM,> 300 nM
same,IC50,second compound 3.16 µM,> 300 nM
same,IC50,second compound 10 µM,> 300 nM
same,"viability, T/C","second compound 0.1 µM, first compound 0.000949 µM",92.5%
same,"viability, T/C","second compound 0.1 µM, first compound 0.003 µM",103%
same,"viability, T/C",[31],105%
same,"viability, T/C",[32],79.3%
same,"viability, T/C",[33],66%
same,"viability, T/C",[34],57.8%
same,"viability, T/C","second compound 0.316 µM, first compound 0.000949 µM",111%
same,"viability, T/C","second compound 0.316 µM, first compound 0.003 µM",99.7%
same,"viability, T/C",[35],88.4%
same,"viability, T/C",[36],66.2%
same,"viability, T/C",[37],65.8%
same,"viability, T/C",[38],54.5%
same,"viability, T/C","second compound 1 µM, first compound 0.000949 µM",99.3%
same,"viability, T/C","second compound 1 µM, first compound 0.003 µM",82%
same,"viability, T/C",[39],68.7%
same,"viability, T/C",[40],78.9%
same,"viability, T/C",[41],61.5%
same,"viability, T/C",[42],58%
same,"viability, T/C","second compound 3.16 µM, first compound 0.000949 µM",86.6%
same,"viability, T/C","second compound 3.16 µM, first compound 0.003 µM",83.3%
same,"viability, T/C",[43],92.6%
same,"viability, T/C",[44],63.5%
same,"viability, T/C",[45],53.1%
same,"viability, T/C",[46],46.9%
same,"viability, T/C","second compound 10 µM, first compound 0.000949 µM",100%
same,"viability, T/C","second compound 10 µM, first compound 0.003 µM",103%
same,"viability, T/C",[47],87.4%
same,"viability, T/C",[48],82.8%
same,"viability, T/C",[49],72.4%
same,"viability, T/C",[50],60.7%
